Test results as given in the supplement of paper PMC4862054.

Columns and labels:
[1] = tested on: DU-4475; test: normalised viability (% of control), CellTiter-Blue; higher = more viable cells (100 = DMSO, 0 = benzethonium chloride kill control); settings: incubation time: 72 h
Experimental: (§1)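 DSRT, CellTiter-Blue viability, 72 h incubation. Signal is normalised to DMSO and benzethonium chloride controls. Value is the normalised response at dose 1.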

[2] = tested on: Hs578T; test: as above; settings: incubation time: 72 h
Experimental: as §1

[3] = tested on: MFM-223; test: as above; settings: incubation time: 72 h
Experimental: as §1

[4] = tested on: MDA-MB-468; test: as above; settings: 1 nM; incubation time: 72 h
Experimental: as §1

[5] = tested on: MDA-MB-436; test: as above; settings: incubation time: 72 h
Experimental: as §1

[6] = tested on: MDA-MB-231; test: as above; settings: 1 nM; incubation time: 72 h
Experimental: as §1

[7] = tested on: MDA-MB-453; test: as above; settings: incubation time: 72 h
Experimental: as §1

[8] = tested on: CAL-85-1; test: as above; settings: incubation time: 72 h
Experimental: as §1

[9] = tested on: HDQ-P1; test: as above; settings: incubation time: 72 h
Experimental: as §1

[10] = tested on: HCC1937; test: as above; settings: 1 nM; incubation time: 72 h
Experimental: as §1

[11] = tested on: BT-474; test: as above; settings: 1 nM; incubation time: 72 h
Experimental: as §1

[12] = tested on: CAL-148; test: as above; settings: incubation time: 72 h
Experimental: as §1

[13] = tested on: CAL-51; test: as above; settings: incubation time: 72 h
Experimental: as §1

[14] = tested on: CAL-120; test: as above; settings: incubation time: 72 h
Experimental: as §1

[15] = tested on: BT-549; test: as above; settings: incubation time: 72 h
Experimental: as §1

[16] = tested on: HCC1143; test: as above; settings: incubation time: 72 h
Experimental: as §1

[17] = tested on: HCC1599; test: as above; settings: incubation time: 72 h
Experimental: as §1

[18] = tested on: SK-BR-3; test: as above; settings: 1 nM; incubation time: 72 h
Experimental: as §1

[19] = tested on: Hs578T; test: normalised viability (% of control), CellTiter-Blue; higher = more viable cells (about 100 = DMSO control); settings: incubation time: 72 h
Experimental: (§2)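 DSRT, CellTiter-Blue viability, 72 h incubation. Signal is normalised to DMSO and benzethonium chloride controls. Value is the normalised response at dose 3.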

[20] = tested on: MFM-223; test: as above; settings: incubation time: 72 h
Experimental: as §2

[21] = tested on: MDA-MB-468; test: as above; settings: 100 nM; incubation time: 72 h
Experimental: as §2

[22] = tested on: MDA-MB-436; test: as above; settings: incubation time: 72 h
Experimental: as §2

[23] = tested on: MDA-MB-231; test: as above; settings: 100 nM; incubation time: 72 h
Experimental: as §2

[24] = tested on: CAL-85-1; test: as above; settings: incubation time: 72 h
Experimental: as §2

[25] = tested on: HDQ-P1; test: as above; settings: incubation time: 72 h
Experimental: as §2

[26] = tested on: HCC1937; test: as above; settings: 100 nM; incubation time: 72 h
Experimental: as §2

[27] = tested on: BT-474; test: as above; settings: 100 nM; incubation time: 72 h
Experimental: as §2

[28] = tested on: CAL-148; test: as above; settings: incubation time: 72 h
Experimental: as §2

[29] = tested on: CAL-51; test: as above; settings: incubation time: 72 h
Experimental: as §2

[30] = tested on: BT-549; test: as above; settings: incubation time: 72 h
Experimental: as §2

[31] = tested on: HCC1599; test: as above; settings: incubation time: 72 h
Experimental: as §2

[32] = tested on: SK-BR-3; test: as above; settings: 100 nM; incubation time: 72 h
Experimental: as §2

CCC/C=C/C=C/C(=O)O[C@H]1/C(=C/C(=O)OC)C[C@H]2C[C@H]([C@@H](C)O)OC(=O)C[C@H](O)C[C@@H]3C[C@H](OC(C)=O)C(C)(C)[C@](O)(C[C@@H]4C/C(=C/C(=O)OC)C[C@H](/C=C/C(C)(C)[C@]1(O)O2)O4)O3 [Bryostatin 1]
normalised viability ([1]; 0.01 nM): 118% | normalised viability ([2]; 0.01 nM): 106% | normalised viability ([3]; 0.01 nM): 96.2% | normalised viability [4]: 99.1% | normalised viability ([5]; 0.01 nM): 140% | normalised viability [6]: 98.7% | normalised viability ([7]; 0.01 nM): 102% | normalised viability ([8]; 0.01 nM): 97.5% | normalised viability ([9]; 0.01 nM): 100% | normalised viability [10]: 85.2% | normalised viability [11]: 105% | normalised viability ([12]; 0.01 nM): 98.8% | normalised viability ([13]; 0.01 nM): 99.2% | normalised viability ([14]; 0.01 nM): 85.8% | normalised viability ([15]; 0.01 nM): 109% | normalised viability ([16]; 0.01 nM): 114% | normalised viability ([17]; 0.01 nM): 123% | normalised viability [18]: 103% | normalised viability ([19]; 1 nM): 63% | normalised viability ([20]; 1 nM): 98.7% | normalised viability [21]: 101% | normalised viability ([22]; 1 nM): 126% | normalised viability [23]: 97.2% | normalised viability ([24]; 0.1 nM): 124% | normalised viability ([25]; 0.1 nM): 106% | normalised viability [26]: 103% | normalised viability [27]: 102% | normalised viability ([28]; 0.1 nM): 90.7% | normalised viability ([29]; 0.1 nM): 102% | normalised viability ([30]; 1 nM): 94.8% | normalised viability ([31]; 1 nM): 110% | normalised viability [32]: 84.1%

CO[C@@H](C(=O)N1Cc2[nH]nc(NC(=O)c3ccc(N4CCN(C)CC4)cc3)c2C1)c1ccccc1 [Danusertib]
normalised viability ([1]; 1 nM): 107% | normalised viability ([2]; 1 nM): 96.6% | normalised viability ([3]; 1 nM): 53.6% | normalised viability [4]: 98.7% | normalised viability ([5]; 1 nM): 96.5% | normalised viability [6]: 101% | normalised viability ([7]; 1 nM): 84.3% | normalised viability ([8]; 1 nM): 77.2% | normalised viability ([9]; 1 nM): 110% | normalised viability [10]: 91.3% | normalised viability [11]: 101% | normalised viability ([12]; 1 nM): 101% | normalised viability ([13]; 1 nM): 116% | normalised viability ([14]; 1 nM): 81% | normalised viability ([15]; 1 nM): 109% | normalised viability ([16]; 1 nM): 99.3% | normalised viability ([17]; 1 nM): 94.1% | normalised viability [18]: 79.4% | normalised viability ([19]; 100 nM): 67.1% | normalised viability ([20]; 100 nM): 44% | normalised viability [21]: 59.4% | normalised viability ([22]; 100 nM): 95.1% | normalised viability [23]: 79% | normalised viability ([24]; 10 nM): 93.6% | normalised viability ([25]; 10 nM): 104% | normalised viability [26]: 99.9% | normalised viability [27]: 80.8% | normalised viability ([28]; 10 nM): 79.9% | normalised viability ([29]; 10 nM): 105% | normalised viability ([30]; 100 nM): 102% | normalised viability ([31]; 100 nM): 77.2% | normalised viability [32]: 62.4%

O=S(=O)(c1cccc2cnccc12)N1CCCNCC1 [Fasudil]
normalised viability ([1]; 1 nM): 108% | normalised viability ([2]; 1 nM): 116% | normalised viability ([3]; 1 nM): 105% | normalised viability [4]: 102% | normalised viability ([5]; 1 nM): 109% | normalised viability [6]: 106% | normalised viability ([7]; 1 nM): 121% | normalised viability ([8]; 1 nM): 96% | normalised viability ([9]; 1 nM): 99.9% | normalised viability [10]: 88.6% | normalised viability [11]: 102% | normalised viability ([12]; 1 nM): 90.8% | normalised viability ([13]; 1 nM): 111% | normalised viability ([14]; 1 nM): 83.9% | normalised viability ([15]; 1 nM): 98.8% | normalised viability ([16]; 1 nM): 92.8% | normalised viability ([17]; 1 nM): 99.4% | normalised viability [18]: 93.8% | normalised viability ([19]; 100 nM): 97.5% | normalised viability ([20]; 100 nM): 93.6% | normalised viability [21]: 106% | normalised viability ([22]; 100 nM): 100% | normalised viability [23]: 96% | normalised viability ([24]; 10 nM): 97.7% | normalised viability ([25]; 10 nM): 103% | normalised viability [26]: 91.7% | normalised viability [27]: 117% | normalised viability ([28]; 10 nM): 93.1% | normalised viability ([29]; 10 nM): 112% | normalised viability ([30]; 100 nM): 95.6% | normalised viability ([31]; 100 nM): 100% | normalised viability [32]: 86.2%

CS(=O)(=O)N1CCN(Cc2cc3nc(-c4cccc5[nH]ncc45)nc(N4CCOCC4)c3s2)CC1 [GDC-0941]
normalised viability ([1]; 1 nM): 106% | normalised viability ([2]; 1 nM): 112% | normalised viability ([3]; 1 nM): 89.7% | normalised viability [4]: 95.5% | normalised viability ([5]; 1 nM): 118% | normalised viability [6]: 92.9% | normalised viability ([7]; 1 nM): 93% | normalised viability ([8]; 1 nM): 87.5% | normalised viability ([9]; 1 nM): 109% | normalised viability [10]: 112% | normalised viability [11]: 101% | normalised viability ([12]; 1 nM): 100% | normalised viability ([13]; 1 nM): 114% | normalised viability ([14]; 1 nM): 89.7% | normalised viability ([15]; 1 nM): 94.6% | normalised viability ([16]; 1 nM): 84.1% | normalised viability ([17]; 1 nM): 92.8% | normalised viability [18]: 88.3% | normalised viability ([19]; 100 nM): 89.1% | normalised viability ([20]; 100 nM): 82% | normalised viability [21]: 84.2% | normalised viability ([22]; 100 nM): 91.6% | normalised viability [23]: 83.2% | normalised viability ([24]; 10 nM): 90.7% | normalised viability ([25]; 10 nM): 101% | normalised viability [26]: 99.1% | normalised viability [27]: 102% | normalised viability ([28]; 10 nM): 85.6% | normalised viability ([29]; 10 nM): 109% | normalised viability ([30]; 100 nM): 92.8% | normalised viability ([31]; 100 nM): 69.2% | normalised viability [32]: 58.7%

Cc1c(CN2CCN(C(=O)[C@H](C)O)CC2)sc2c(N3CCOCC3)nc(-c3cnc(N)nc3)nc12 [GDC-0980]
normalised viability ([1]; 1 nM): 104% | normalised viability ([2]; 1 nM): 102% | normalised viability ([3]; 1 nM): 96.8% | normalised viability [4]: 99.6% | normalised viability ([5]; 1 nM): 84.5% | normalised viability [6]: 96.6% | normalised viability ([7]; 1 nM): 96.5% | normalised viability ([8]; 1 nM): 83.5% | normalised viability ([9]; 1 nM): 95.9% | normalised viability [10]: 88.1% | normalised viability [11]: 103% | normalised viability ([12]; 1 nM): 106% | normalised viability ([13]; 1 nM): 101% | normalised viability ([14]; 1 nM): 96.3% | normalised viability ([15]; 1 nM): 91.7% | normalised viability ([16]; 1 nM): 94.9% | normalised viability ([17]; 1 nM): 95.5% | normalised viability [18]: 92.2% | normalised viability ([19]; 100 nM): 82.2% | normalised viability ([20]; 100 nM): 65.4% | normalised viability [21]: 85.3% | normalised viability ([22]; 100 nM): 85.6% | normalised viability [23]: 59.2% | normalised viability ([24]; 10 nM): 100% | normalised viability ([25]; 10 nM): 94% | normalised viability [26]: 76.7% | normalised viability [27]: 90.2% | normalised viability ([28]; 10 nM): 96.2% | normalised viability ([29]; 10 nM): 101% | normalised viability ([30]; 100 nM): 81.9% | normalised viability ([31]; 100 nM): 67.8% | normalised viability [32]: 45.3%
